Our source for the inhibition and melting point values is patent US20080076801A1, “Indolylalkylpyridin-2-amines for the inhibition of beta-secretase” (Wyeth, priority 2006, published 2008).

In general, inhibition refers to the drop in the measured response relative to a control, in per cent. For orientation: melting point means the temperature of the solid-liquid transition.

One data set concerns the target human BACE1 (Homo sapiens, UniProt P56817). As to the kind of experiment: BACE1 fluorescent kinetic assay (cleavage of peptide substrate WABC-6). In kind it is biochemical. As to conditions: 5 μM inhibitor; 10 nM enzyme, 25 μM substrate, pH 4.5, room temperature; read-out: BACE-1 % Inhibition at 5 μM. As for the experimental part:
Evaluation of BACE1 Binding Affinity of Test Compounds
Fluorescent Kinetic Assays
Final Assay Conditions: 10 nM human BACE1 (or 10 nM Murine BACE1, 1.5 nM human BACE2), 25 μM substrate (WABC-6, MW 1549.6, from AnaSpec), Buffer: 50 mM Na-Acetate, pH 4.5, 0.05% CHAPS, 25% PBS, room temperature. Na-Acetate was from Aldrich, Cat.# 24, 124-5, CHAPS was from Research Organics, Cat. # 1304C 1×, PBS was from Mediatech (Cellgro), Cat# 21-031-CV, peptide substrate AbzSEVNLDAEFRDpa was from AnaSpec, Peptide Name: WABC-6
Determination of stock substrate (AbzSEVNLDAEFRDpa) concentration: ˜25 mM stock solution is made in DMSO using the peptide weight and MW, and diluted to ˜25 μM (1:1000) in 1×PBS. Concentration is determined by absorbance at 354 nm using an extinction coefficient ε of 18172 M^−1cm^−1, the concentration of stock substrate is corrected, and the substrate stock stored in small aliquots in −80° C. [Substrate Stock]=ABS^354 nm*10^6/18172 (in […]) The extinction coefficient ε^354 nm was adapted from TACE peptide substrate, which had the same quencher-fluorophore pair. Determination of Stock Enzyme Concentration: the stock concentration of each enzyme is determined by absorbance at 280 nm using an ε of 64150 M^−1cm^−1 for hBACE1 and MuBACE1, 62870 M^−1cm^−1 for hBACE2 in 6 M Guanidinium Hydrochloride (from Research Organics, Cat. # 5134G-2), pH ˜6. The extinction coefficient ε^280 nm for each enzyme was calculated based on known amino acid composition and published extinction coefficients for Trp ([…]) and Tyr ([…]) residues (Anal. Biochem. 182, 319-326). Dilution and mixing steps: total reaction volume: 100 μL
2× inhibitor dilutions in buffer A (66.7 mM Na-Acetate, pH 4.5, 0.0667% CHAPS) were prepared,
4× enzyme dilution in buffer A (66.7 mM Na-Acetate, pH 4.5, 0.0667% CHAPS) were prepared,
100 μM substrate dilution in 1×PBS was prepared, and
50 μL 2× Inhibitor, 25 μL 100 μM substrate are added to each well of 96-well plate (from DYNEX Technologies, VWR #: 11311-046), immediately followed by 25 μL 4× enzyme (added to the inhibitor and substrate mix), and the fluorescence readings are initiated.
Fluorescence Readings: Readings at λex 320 nm and λem 420 nm are taken every 40 sec for 30 min at room temperature and the linear slope for substrate cleavage rate (vi) determined.
Calculation of % Inhibition: % Inhibition=100*(1−vi/v0) vi: substrate cleavage rate in the presence of inhibitor v0: substrate cleavage rate in the absence of inhibitor IC50 Determination: % Inhibition=((B*IC50^n)+(100*I0^n))/(IC50^n+I0^n) (Model # 39 from LSW Tool Bar in Excel where B is the % inhibition from the enzyme control, which should be close to 0.) % Inhibition is plotted vs. Inhibitor Concentration (I0) and the data fit to the above equation to obtain IC50 value and Hill number (n) for each compound. Testing at least 10 different inhibitor concentrations is preferred.

Chain of human BACE1 (P56817 46-501): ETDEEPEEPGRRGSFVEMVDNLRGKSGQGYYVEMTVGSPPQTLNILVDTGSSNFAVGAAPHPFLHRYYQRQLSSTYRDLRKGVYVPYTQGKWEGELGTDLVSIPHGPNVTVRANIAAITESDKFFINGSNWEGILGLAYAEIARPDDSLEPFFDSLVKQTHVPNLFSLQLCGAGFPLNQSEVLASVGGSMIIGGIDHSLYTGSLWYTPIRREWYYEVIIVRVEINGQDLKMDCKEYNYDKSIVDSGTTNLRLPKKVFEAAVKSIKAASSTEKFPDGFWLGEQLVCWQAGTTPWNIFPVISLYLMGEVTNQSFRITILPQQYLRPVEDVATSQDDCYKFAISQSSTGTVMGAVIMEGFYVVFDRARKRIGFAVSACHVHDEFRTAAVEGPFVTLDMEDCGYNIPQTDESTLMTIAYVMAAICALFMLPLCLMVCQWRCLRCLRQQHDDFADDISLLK

For `Nc1cccc(Cn2c(-c3ccccc3Cl)cc3ccc(C#CCCO)cc32)n1` [Example 20, 4-{1-[(6-Aminopyridin-2-yl)methyl]-2-(2-chlorophenyl)-1H-indol-6-yl}but-3-yn-1-ol], the inhibition at 5 µM on human BACE1 amounted to 67.5%.
In turn, `Nc1cccc(Cn2c(-c3ccccc3Cl)cc3ccc(OCc4ccccc4)cc32)n1` [Example 9, 6-{[6-(benzyloxy)-2-(2-chlorophenyl)-1H-indol-1-yl]methyl}pyridin-2-amine] returned a melting point of 64 to 66 °C. The inhibition at 5 µM at human BACE1 was 31.6%.
For `COc1cccc(COc2ccc3cc(-c4ccccc4Cl)n(Cc4cccc(N)n4)c3c2)c1` [Example 14, 6-({2-(2-chlorophenyl)-6-[(3-methoxybenzyl)oxy]-1H-indol-1-yl}methyl)pyridin-2-amine], in that order: 67 to 69 °C and 36.3%.
For the compound `CCCOc1ccc2cc(-c3ccccc3Cl)n(Cc3cccc(N)n3)c2c1` [Example 15, 6-{[2-(2-chlorophenyl)-6-propoxy-1H-indol-1-yl]methyl}pyridin-2-amine], the melting point is 128 to 130 °C. Also, the inhibition at 5 µM at human BACE1 was 38.6%.
`Nc1cccc(Cn2c(-c3ccccc3Cl)cc3ccc(C#CCCCCF)cc32)n1` [Example 32, 6-{[2-(2-chlorophenyl)-6-(6-fluorohex-1-yn-1-yl)-1H-indol-1-yl]methyl}pyridin-2-amine]: the inhibition at 5 µM at human BACE1 is 53.4%.
Compound `N#Cc1cccc(COc2ccc3cc(-c4ccccc4Cl)n(Cc4cccc(N)n4)c3c2)c1` [Example 10, 3-({[1-[(6-aminopyridin-2-yl)methyl]-2-(2-chlorophenyl)-1H-indol-6-yl]oxy}methyl)benzonitrile] yielded a melting point of 65 to 67 °C. Besides, the inhibition at 5 µM at human BACE1 was 58%.
`Nc1cccc(Cn2c(-c3ccccc3Cl)cc3ccc(C#CCCCCO)cc32)n1` [Example 23, 6-{1-[(6-Aminopyridin-2-yl)methyl]-2-(2-chlorophenyl)-1H-indol-6-yl}hex-5-yn-1-ol]: at human BACE1, the inhibition at 5 µM turned out to be 81.1%.
On to `Nc1cccc(Cn2c(-c3ccccc3Cl)cc3ccc(C#CCCF)cc32)n1` [Example 21, 6-{[6-(4-fluorobutyn-1-yl)-2-(2-chlorophenyl)-1H-indol-1-yl]methyl}pyridin-2-amine], for which, at human BACE1, the inhibition at 5 µM came to 56.6%.
For the compound `Nc1cccc(Cn2c(-c3ccccc3Cl)cc3ccc(CCCCCO)cc32)n1` [Example 25, 5-[1-(6-Aminopyridin-2-ylmethyl)-2-(2-chlorophenyl)-1H-indol-6-yl]pentan-1-ol], the inhibition at 5 µM at human BACE1 amounted to 77.3%.
In turn, `Nc1cccc(Cn2c(-c3ccccc3Cl)cc3ccc(OCc4cc(F)ccc4F)cc32)n1` [Example 12, 6-({2-(2-chlorophenyl)-6-[(2,5-difluorobenzyl)oxy]-1H-indol-1-yl}methyl)pyridin-2-amine] displayed a melting point of 65 to 68 °C. The inhibition at 5 µM on human BACE1 stood at 33.2%.
On to `Nc1cccc(Cn2c(-c3ccccc3Cl)cc3ccc(C#CCCCO)cc32)n1` [Example 22, 5-{1-[(6-Aminopyridin-2-yl)methyl]-2-(2-chlorophenyl)-1H-indol-6-yl}pent-4-yn-1-ol], for which the inhibition at 5 µM at human BACE1 amounted to 71.2%.
On to `Nc1cccc(Cn2c(-c3ccccc3Cl)cc3ccc(Oc4cncnc4)cc32)n1` [Example 17, 6-{[2-(2-chlorophenyl)-6-(pyrimidin-5-yloxy)-1H-indol-1-yl]methyl}pyridin-2-amine], for which the melting point was 115 to 117 °C. Besides, the inhibition at 5 µM at human BACE1 amounted to 39.8%.
Take `N#CCCCOc1ccc2cc(-c3ccccc3Cl)n(Cc3cccc(N)n3)c2c1` [Example 8, 4-{[1-[(6-aminopyridin-2-yl)methyl]-2-(2-chlorophenyl)-1H-indol-6-yl]oxy}butanenitrile]: the inhibition at 5 µM at human BACE1 came out at 79%.
Still for that read-out and setting: in the case of `Nc1cccc(Cn2c(-c3ccccc3Cl)cc3ccc(CCCCO)cc32)n1` [Example 24, 4-[1-(6-Aminopyridin-2-ylmethyl)-2-(2-chlorophenyl)-1H-indol-6-yl]butan-1-ol] it was 71.8%.
Take `Nc1cccc(Cn2c(-c3ccccc3)cc3ccccc32)n1` [Example 30]: the melting point lay in the range of 45 to 47 °C. For the same compound, the inhibition at 5 µM on human BACE1 came to 24.6%.
With `Nc1cccc(Cn2c(-c3ccccc3Cl)cc3ccc(C#CCCCF)cc32)n1` [Example 31, 6-{[2-(2-chlorophenyl)-6-(5-fluoropent-1-yn-1-yl)-1H-indol-1-yl]methyl}pyridin-2-amine], at human BACE1, the inhibition at 5 µM turned out to be 64.6%.
In the case of `COc1ccc2cc(-c3ccccc3Cl)n(Cc3cccc(N)n3)c2c1` [Example 16, 6-{[2-(2-chlorophenyl)-6-methoxy-1H-indol-1-yl]methyl}pyridin-2-amine], the melting point was in the range of 174 to 176 °C. Besides, the inhibition at 5 µM at human BACE1 came to 30.1%.
In turn, `Nc1cccc(Cn2c(-c3ccccc3Cl)cc3ccc(OCc4cccc(C(F)(F)F)c4)cc32)n1` [Example 13, 6-[(2-(2-chlorophenyl)-6-{[3-(trifluoromethyl)benzyl]oxy}-1H-indol-1-yl)methyl]pyridin-2-amine] showed a melting point of 60 to 62 °C. The inhibition at 5 µM on human BACE1 came out at 13.8%.
Taken in the same sequence, the figures for `Nc1cccc(Cn2c(-c3ccccc3Cl)cc3ccc(Br)cc32)n1` [Example 19, 6-{[6-Bromo-2-(2-chlorophenyl)-1H-indol-1-yl]methyl}pyridin-2-amine] were 189 to 191 °C and 31.7%.
In the case of `COCCCC#Cc1ccc2cc(-c3ccccc3Cl)n(Cc3cccc(N)n3)c2c1` [Example 28, 6-{[2-(2-Chlorophenyl)-6-(5-methoxypent-1-yn-1-yl)-1H-indol-1-yl]methyl}pyridin-2-amine], the inhibition at 5 µM on human BACE1 is 53%.
The same measure, in the same setting: the figure for `Nc1cccc(Cn2c(-c3ccccc3Cl)cc3ccc(CCCCCCO)cc32)n1` [Example 26, 6-[1-(6-Aminopyridin-2-ylmethyl)-2-(2-chlorophenyl)-1H-indol-6-yl]hexan-1-ol] is 107%.
In the case of `COCCC#Cc1ccc2cc(-c3ccccc3Cl)n(Cc3cccc(N)n3)c2c1` [Example 27, 6-{[2-(2-Chlorophenyl)-6-(4-methoxybut-1-yn-1-yl)-1H-indol-1-yl]methyl}pyridin-2-amine], the inhibition at 5 µM on human BACE1 worked out at 51%.
`Nc1cccc(Cn2c(-c3ccccc3Cl)cc3ccc(OCc4cccc(F)c4)cc32)n1` [Example 11, 6-({2-(2-chlorophenyl)-6-[(3-fluorobenzyl)oxy]-1H-indol-1-yl}methyl)pyridin-2-amine] yielded a melting point of 60 to 64 °C. In addition, the inhibition at 5 µM at human BACE1 was 49.5%.
